According to patent publication US11332467B2, “Solid state forms of palbociclib dimesylate” (PLANTEX LTD., priority 2016, dated 2022):

Experiment: Specific surface area (SSA), BET nitrogen adsorption
Assay type: physicochemical
Details: 7 point BET in the range 0.05-0.20 P/Po, triplicate determination, Palbociclib Form A obtained by Example 6
Description: Specific Surface Area (SSA) Method
SSA measurement based on BET-nitrogen adsorption were carried out using a Micromeritics TriStar II Plus 3030 specific surface area analyzer together with Micromeritics VacPrep 061 degassing station.
Software version: Microactive for TriStar II Plus v 2.03
Sample tube: ½″ round bottom cell with glass filler rods
Sample masses*: Approximately % full cell
Sample preparation: VacPrep 061, nitrogen stream
Out gassing conditions: 16 hrs at 25° C. under vacuum
Isothermal collection points: 11 point BET in the range 0.05-0.30 P/Po
Isothermal data analysis range: 7 point BET in the range 0.05-0.20 P/Po
Outgas test duration: 180 s
Equilibration interval: 10 s
Equilibration timeout: 600 s
Calculations and Reporting: The specific surface area was reported in the range 0.05-0.20 P/Po using 7 point BET from a triplicate determination.

Q: For `CC(=O)c1c(C)c2cnc(Nc3ccc(N4CCNCC4)cn3)nc2n(C2CCCC2)c1=O` [Palbociclib, 6-Acetyl-8-cyclopentyl-5-methyl-2-[[5-(1-piperazinyl)-2-pyridinyl]amino]pyrido[2,3-d]pyrimidin-7(8H)-one], which “SSA (specific surface area)” value is on record?
A: 4.9 m^2/g
